In ChEMBL document CHEMBL4043168, “The design and SAR of a novel series of 2-aminopyridine based LRRK2 inhibitors” (Bioorg Med Chem Lett, 2017):

How the values were obtained:
[1] = target: Kinase suppressor of Ras 1 (Homo sapiens) (UniProt Q8IVT5); test: Inhibition of KSR1 activation Loop (SKNVFYDNGK) in human PBMC at 0.1 uM
[2] = target: T1, Serine/threonine-protein kinase ULK3 (Homo sapiens) (UniProt Q6PHR2); test: Inhibition of ULK3 conserved Lys1 (EVVAIKCVAK) in human PBMC at 1 uM; conditions: pooled result: one value given for 4 cell lines, strains, targets or settings
T1 sequence (whole entry): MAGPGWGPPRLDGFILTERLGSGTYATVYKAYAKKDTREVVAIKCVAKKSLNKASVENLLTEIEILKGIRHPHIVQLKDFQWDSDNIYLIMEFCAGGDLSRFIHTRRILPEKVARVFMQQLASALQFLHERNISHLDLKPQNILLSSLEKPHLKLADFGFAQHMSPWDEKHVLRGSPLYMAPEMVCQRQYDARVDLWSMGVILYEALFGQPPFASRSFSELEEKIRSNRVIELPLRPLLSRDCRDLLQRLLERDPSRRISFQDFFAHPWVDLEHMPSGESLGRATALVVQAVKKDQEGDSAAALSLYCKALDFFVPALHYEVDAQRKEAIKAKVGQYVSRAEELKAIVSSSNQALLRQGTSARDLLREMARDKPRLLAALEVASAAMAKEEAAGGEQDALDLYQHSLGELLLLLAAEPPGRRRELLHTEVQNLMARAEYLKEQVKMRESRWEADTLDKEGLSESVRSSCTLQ

[3] = target: Tyrosine-protein kinase JAK1 (Homo sapiens) (UniProt P23458); test: Inhibition of JAK1 domain1 (QLASALSYLEDKDLVHGNVCTKNLLLAR) in human PBMC at 1 uM
[4] = target: Cyclin-dependent kinase 1 (Homo sapiens) (UniProt P06493); test: Inhibition of CDC2 labeling at conserved Lys2 (DLKPQNLLIDDKGTIK) in human PBMC at 0.1 uM
[5] = target: Serine/threonine-protein kinase SIK3 (Homo sapiens) (UniProt Q9Y2K2); test: Inhibition of QSK conserved Lys1 (VAIKIIDKTQLDEENLKK) in human PBMC at 1 uM
[6] = target: Serine/threonine-protein kinase Nek7 (Homo sapiens) (UniProt Q8TDX7); test: Inhibition of NEK7 conserved Lys2 (DIKPANVFITATGVVK) in human PBMC at 1 uM
[7] = target: Serine/threonine-protein kinase 10 (Homo sapiens) (UniProt O94804); test: Inhibition of LOK conserved Lys2 (DLKAGNVLMTLEGDIR) in human PBMC at 0.1 uM
[8] = target: Mitogen-activated protein kinase kinase kinase 3 (Homo sapiens) (UniProt Q99759); test: Inhibition of MAP3K3 conserved Lys2 (DIKGANILR) in human PBMC at 0.1 uM
[9] = target: T2, Interleukin-1 receptor-associated kinase 4 (Homo sapiens) (UniProt Q9NWZ3); test: Inhibition of IRAK4 conserved Lys1 (GYVNNTTVAVKK) in human PBMC at 1 uM
T2 sequence (whole entry): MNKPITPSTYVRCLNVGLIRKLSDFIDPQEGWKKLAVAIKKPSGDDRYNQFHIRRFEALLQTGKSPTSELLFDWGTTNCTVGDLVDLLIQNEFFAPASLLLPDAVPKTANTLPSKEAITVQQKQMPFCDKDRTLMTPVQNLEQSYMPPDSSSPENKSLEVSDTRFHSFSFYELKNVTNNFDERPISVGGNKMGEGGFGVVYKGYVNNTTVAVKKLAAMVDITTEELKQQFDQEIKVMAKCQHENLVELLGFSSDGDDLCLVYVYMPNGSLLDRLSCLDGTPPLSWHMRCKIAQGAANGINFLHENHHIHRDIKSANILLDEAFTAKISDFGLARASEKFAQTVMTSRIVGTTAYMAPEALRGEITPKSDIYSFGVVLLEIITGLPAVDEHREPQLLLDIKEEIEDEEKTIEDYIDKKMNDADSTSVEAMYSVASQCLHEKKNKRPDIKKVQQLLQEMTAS

[10] = target: T1, Serine/threonine-protein kinase ULK3 (Homo sapiens); test: Inhibition of ULK3 conserved Lys2 (NISHLDLKPQNILLSSLEKPHLK) in human PBMC at 1 uM
[11] = target: Calcium/calmodulin-dependent protein kinase type 1D (Homo sapiens) (UniProt Q8IU85); test: Inhibition of CaMK1d labeling at conserved Lys2 (DLKPENLLYYSQDEESK) in human PBMC at 1 uM
[12] = target: Mitogen-activated protein kinase kinase kinase 15 (Homo sapiens) (UniProt Q6ZN16); test: Inhibition of MAP3K15 conserved Lys1 (IAIKEIPER) in human PBMC at 1 uM
Mitogen-activated protein kinase kinase kinase 15 (Homo sapiens), sequence (Q6ZN16 whole entry): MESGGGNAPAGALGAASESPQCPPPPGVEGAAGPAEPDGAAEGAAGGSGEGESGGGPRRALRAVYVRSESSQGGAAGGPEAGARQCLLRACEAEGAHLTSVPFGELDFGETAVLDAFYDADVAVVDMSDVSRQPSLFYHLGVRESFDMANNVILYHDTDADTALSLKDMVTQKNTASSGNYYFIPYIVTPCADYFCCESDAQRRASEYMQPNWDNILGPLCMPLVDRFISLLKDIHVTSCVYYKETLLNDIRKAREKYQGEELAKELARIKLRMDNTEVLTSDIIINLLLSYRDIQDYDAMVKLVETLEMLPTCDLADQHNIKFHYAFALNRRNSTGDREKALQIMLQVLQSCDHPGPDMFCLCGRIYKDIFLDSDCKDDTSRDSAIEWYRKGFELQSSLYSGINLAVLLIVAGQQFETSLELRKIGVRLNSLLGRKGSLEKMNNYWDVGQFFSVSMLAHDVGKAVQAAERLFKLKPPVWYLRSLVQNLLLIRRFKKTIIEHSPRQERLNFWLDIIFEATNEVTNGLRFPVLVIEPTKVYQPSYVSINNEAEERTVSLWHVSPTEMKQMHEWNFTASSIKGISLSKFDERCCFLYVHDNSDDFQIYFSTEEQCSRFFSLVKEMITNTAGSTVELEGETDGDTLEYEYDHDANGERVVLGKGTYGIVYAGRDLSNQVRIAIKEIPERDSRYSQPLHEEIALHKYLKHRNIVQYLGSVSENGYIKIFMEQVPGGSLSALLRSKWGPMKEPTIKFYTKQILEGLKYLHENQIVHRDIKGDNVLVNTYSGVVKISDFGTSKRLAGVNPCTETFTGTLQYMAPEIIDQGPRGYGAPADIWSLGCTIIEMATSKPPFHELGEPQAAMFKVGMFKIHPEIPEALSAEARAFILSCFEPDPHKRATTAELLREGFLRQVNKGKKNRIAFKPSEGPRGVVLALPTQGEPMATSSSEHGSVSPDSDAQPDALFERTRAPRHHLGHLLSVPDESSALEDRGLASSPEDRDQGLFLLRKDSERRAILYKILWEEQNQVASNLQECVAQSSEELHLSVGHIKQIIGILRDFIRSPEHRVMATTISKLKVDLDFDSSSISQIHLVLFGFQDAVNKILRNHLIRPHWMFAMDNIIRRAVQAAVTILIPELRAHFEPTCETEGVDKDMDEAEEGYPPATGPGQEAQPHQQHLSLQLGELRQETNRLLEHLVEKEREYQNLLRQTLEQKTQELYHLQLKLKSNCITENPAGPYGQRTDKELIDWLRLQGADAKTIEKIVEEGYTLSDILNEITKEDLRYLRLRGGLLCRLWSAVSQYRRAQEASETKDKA

Cyclin-dependent kinase 1 (Homo sapiens), sequence (P06493 whole entry, looked up): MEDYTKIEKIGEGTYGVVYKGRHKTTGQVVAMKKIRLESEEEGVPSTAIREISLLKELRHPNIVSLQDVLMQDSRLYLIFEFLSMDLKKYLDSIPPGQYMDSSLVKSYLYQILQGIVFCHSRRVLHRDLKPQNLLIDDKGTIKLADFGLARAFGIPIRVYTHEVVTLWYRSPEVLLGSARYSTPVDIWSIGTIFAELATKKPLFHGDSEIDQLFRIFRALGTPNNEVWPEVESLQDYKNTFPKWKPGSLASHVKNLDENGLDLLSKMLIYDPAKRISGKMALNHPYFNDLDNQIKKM
Kinase suppressor of Ras 1 (Homo sapiens), sequence (Q8IVT5 whole entry): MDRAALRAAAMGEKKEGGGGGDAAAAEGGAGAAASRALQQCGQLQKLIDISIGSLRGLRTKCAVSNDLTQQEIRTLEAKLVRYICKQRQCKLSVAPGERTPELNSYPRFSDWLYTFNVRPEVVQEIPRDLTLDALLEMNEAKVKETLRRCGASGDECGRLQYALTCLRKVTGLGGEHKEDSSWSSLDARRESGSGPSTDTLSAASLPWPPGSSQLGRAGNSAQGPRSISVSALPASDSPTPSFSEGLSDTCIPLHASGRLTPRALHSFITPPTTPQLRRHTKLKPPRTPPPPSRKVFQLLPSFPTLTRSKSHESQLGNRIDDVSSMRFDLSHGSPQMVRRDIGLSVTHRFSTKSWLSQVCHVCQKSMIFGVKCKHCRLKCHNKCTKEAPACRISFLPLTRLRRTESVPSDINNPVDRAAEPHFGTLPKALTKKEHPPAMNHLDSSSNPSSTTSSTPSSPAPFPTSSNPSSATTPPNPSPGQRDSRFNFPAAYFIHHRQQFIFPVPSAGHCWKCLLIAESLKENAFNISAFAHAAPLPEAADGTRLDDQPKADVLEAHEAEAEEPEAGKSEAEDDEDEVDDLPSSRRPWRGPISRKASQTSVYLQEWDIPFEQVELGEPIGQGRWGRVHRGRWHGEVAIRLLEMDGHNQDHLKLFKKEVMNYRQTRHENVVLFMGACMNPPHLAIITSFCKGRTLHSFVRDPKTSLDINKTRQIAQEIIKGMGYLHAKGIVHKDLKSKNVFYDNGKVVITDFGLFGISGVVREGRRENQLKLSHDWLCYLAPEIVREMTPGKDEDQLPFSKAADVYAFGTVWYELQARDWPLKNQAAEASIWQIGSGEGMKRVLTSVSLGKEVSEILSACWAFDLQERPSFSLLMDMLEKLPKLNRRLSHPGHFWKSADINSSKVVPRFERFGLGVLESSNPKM
Serine/threonine-protein kinase 10 (Homo sapiens), sequence (O94804 whole entry, looked up): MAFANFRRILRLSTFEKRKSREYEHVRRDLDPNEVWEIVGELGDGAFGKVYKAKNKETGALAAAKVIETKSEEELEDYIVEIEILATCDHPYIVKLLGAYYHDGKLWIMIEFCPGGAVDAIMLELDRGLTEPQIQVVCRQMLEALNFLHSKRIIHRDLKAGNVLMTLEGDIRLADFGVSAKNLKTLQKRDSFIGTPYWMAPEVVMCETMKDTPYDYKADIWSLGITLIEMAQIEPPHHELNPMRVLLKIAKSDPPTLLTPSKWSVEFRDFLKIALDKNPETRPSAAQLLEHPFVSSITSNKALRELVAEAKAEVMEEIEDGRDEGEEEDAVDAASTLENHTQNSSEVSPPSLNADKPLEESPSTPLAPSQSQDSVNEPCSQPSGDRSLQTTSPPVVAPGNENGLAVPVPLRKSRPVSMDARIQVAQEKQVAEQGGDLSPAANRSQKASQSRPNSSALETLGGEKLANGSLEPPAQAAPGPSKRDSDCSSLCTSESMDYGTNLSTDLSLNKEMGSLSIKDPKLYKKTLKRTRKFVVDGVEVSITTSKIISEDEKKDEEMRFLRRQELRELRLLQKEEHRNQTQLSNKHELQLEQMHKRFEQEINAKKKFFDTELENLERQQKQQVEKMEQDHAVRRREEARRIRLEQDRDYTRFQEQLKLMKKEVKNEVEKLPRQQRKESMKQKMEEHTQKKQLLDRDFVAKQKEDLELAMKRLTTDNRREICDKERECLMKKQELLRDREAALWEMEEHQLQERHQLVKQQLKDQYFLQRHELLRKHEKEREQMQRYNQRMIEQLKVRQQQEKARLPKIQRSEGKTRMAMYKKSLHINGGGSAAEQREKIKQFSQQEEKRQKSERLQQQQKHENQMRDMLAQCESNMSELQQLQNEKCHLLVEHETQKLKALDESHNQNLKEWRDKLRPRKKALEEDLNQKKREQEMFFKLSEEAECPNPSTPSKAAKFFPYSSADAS
Calcium/calmodulin-dependent protein kinase type 1D (Homo sapiens), sequence (Q8IU85 whole entry, looked up): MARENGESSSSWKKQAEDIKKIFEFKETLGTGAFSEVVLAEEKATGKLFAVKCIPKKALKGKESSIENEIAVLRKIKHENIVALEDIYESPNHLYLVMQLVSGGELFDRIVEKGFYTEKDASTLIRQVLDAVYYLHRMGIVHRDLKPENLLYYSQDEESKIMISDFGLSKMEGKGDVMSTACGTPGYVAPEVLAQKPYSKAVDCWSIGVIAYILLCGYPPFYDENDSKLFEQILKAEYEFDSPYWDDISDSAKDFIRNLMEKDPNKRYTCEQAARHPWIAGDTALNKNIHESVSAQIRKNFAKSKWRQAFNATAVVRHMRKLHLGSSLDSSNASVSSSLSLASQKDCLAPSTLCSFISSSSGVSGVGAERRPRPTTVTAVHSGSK
Tyrosine-protein kinase JAK1 (Homo sapiens), sequence (P23458 whole entry, the tested form may be a part): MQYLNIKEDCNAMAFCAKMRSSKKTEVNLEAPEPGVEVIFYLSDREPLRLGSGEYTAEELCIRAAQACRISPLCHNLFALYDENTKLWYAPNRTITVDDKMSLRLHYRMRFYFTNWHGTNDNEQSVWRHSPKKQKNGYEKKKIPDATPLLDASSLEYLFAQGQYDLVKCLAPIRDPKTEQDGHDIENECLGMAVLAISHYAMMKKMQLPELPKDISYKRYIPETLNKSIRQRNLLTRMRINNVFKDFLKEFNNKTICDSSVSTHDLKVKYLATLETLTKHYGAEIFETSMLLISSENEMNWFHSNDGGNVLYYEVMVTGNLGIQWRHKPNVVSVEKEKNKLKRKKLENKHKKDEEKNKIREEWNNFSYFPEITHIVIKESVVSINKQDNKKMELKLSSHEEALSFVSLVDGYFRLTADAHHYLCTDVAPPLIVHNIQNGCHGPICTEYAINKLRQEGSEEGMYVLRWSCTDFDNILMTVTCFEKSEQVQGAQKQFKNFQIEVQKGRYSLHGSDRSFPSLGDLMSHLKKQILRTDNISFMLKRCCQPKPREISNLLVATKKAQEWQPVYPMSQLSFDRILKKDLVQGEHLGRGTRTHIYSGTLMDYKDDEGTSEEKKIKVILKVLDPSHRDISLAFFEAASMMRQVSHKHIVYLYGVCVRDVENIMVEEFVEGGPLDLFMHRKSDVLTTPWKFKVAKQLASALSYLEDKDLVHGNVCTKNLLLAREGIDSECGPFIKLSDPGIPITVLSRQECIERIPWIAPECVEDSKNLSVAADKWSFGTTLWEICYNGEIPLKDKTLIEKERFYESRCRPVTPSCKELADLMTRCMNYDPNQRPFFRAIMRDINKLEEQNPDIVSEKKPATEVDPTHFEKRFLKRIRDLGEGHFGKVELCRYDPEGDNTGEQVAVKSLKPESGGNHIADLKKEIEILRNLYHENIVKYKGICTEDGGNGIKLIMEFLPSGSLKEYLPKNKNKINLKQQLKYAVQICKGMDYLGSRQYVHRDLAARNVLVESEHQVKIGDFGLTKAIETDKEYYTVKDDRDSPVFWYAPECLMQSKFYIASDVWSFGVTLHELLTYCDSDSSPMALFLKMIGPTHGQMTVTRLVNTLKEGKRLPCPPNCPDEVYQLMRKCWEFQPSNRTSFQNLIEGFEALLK

`CC(C)n1cc(-c2cc(-c3ccc(CN4CCOCC4)cc3)cnc2N)nn1` showed an inhibition [1] of 20.4%, an inhibition [2] of 23.5% and an inhibition [3] of 1.8%. For the same compound, the inhibition [4] was 14.4%, the inhibition [5] was 4% and the inhibition [6] was -9.6%. For the same compound, the inhibition [7] was 13.8%, the inhibition [8] was 23.2% and the inhibition [9] was 5%. It also gave an inhibition [10] of 40.8%, an inhibition [11] of -0.9% and an inhibition [12] of -3.3%.
